Source: ChEMBL document CHEMBL4266057, “Optimization of Preclinical Metabolism for Somatostatin Receptor Subtype 5-Selective Antagonists” (ACS Med Chem Lett, 2018)
Blank lines part the entries; values can stand above or below the molecule they belong to.

Key:
[1] = Drug level in rhesus monkey plasma treated with 4-(8-((2,6-diethoxy-4'-fluorobiphenyl-4-yl)methyl)-3-oxo-2,8-diazaspiro[4.5]decan-2-yl)benzoic acid at 50 mg/kg, po qd for 5 days by HPLC analysis; type: ADME, organism-based, Macaca mulatta; conditions: in vivo, 120 h
[2] = Drug metabolism in rhesus monkey plasma assessed as oxidation of biphenyl ring at 50 mg/kg, po qd for 5 days by HPLC analysis; type: ADME, organism-based, Macaca mulatta; conditions: in vivo, 120 h
[3] = Drug metabolism in rhesus monkey plasma assessed as de-ethylation of ethoxyl group at 50 mg/kg, po qd for 5 days by HPLC analysis; type: ADME, organism-based, Macaca mulatta; conditions: in vivo, 120 h
in vitro [4] = conditions: rhesus monkey, liver microsomes
[5] = Drug metabolism in rhesus monkey plasma assessed as glucuronidation of carboxylic acid at 50 mg/kg, po qd for 5 days by HPLC analysis; type: ADME, organism-based, Macaca mulatta; conditions: in vivo, 120 h
[6] = Metabolic stability in Beagle dog liver microsomes at 1 uM after 30 mins; type: ADME, Canis lupus familiaris, microsome; conditions: read-out: Stability
[7] = Metabolic stability in rat liver microsomes at 1 uM after 30 mins; type: ADME, microsome; conditions: read-out: Stability
in vitro [8] = conditions: human, liver microsomes
in vivo [9] = conditions: Sprague-Dawley, rat
[10] = Drug metabolism in rhesus monkey plasma assessed as hydroxylation of benzoic acid at 50 mg/kg, po qd for 5 days by HPLC analysis; type: ADME, organism-based, Macaca mulatta; conditions: in vivo, 120 h
[11] = Fraction unbound in high fat diet fed C57BL/6N mouse plasma at 3 mg/kg, po after 3 hrs; type: ADME, organism-based; conditions: in vivo
in vivo [12] = conditions: Sprague-Dawley, rat, iv, 1 mg/kg
in vivo [13] = conditions: rhesus monkey, plasma, po, 5 mg/kg
in vivo [14] = conditions: rhesus monkey, po, 5 mg/kg
in vivo [15] = conditions: rhesus monkey, po, 5 mg/kg; remark: listed apart in the source
in vivo [16] = conditions: Sprague-Dawley, rat, po, 2 mg/kg
in vivo [17] = conditions: Sprague-Dawley, rat; remark: listed apart in the source

Drug metabolism [1]: Metabolite_Detected
Compound: CCOc1cc(CN2CCC3(CC2)CC(=O)N(c2ccc(C(=O)O[C@@H]4O[C@H](C(=O)O)[C@@H](O)[C@H](O)[C@H]4O)cc2)C3)cc(OCC)c1-c1ccc(F)cc1

Drug metabolism [2]: Metabolite_Detected | Drug metabolism [3]: Metabolite_Detected | remaining at 0.5 h, 1 µM (in vitro [4]): 28% | Drug metabolism [5]: Metabolite_Detected | remaining at 0.5 h, 1 µM [6]: > 80% | remaining at 0.5 h, 1 µM [7]: > 80% | remaining at 0.5 h, 1 µM (in vitro [8]): 92% | AUC (in vivo [9]): 1.67 µM·h | Drug metabolism [10]: Metabolite_Detected | Cp(f) [11]: 16 nM
Compound: CCOc1cc(CN2CCC3(CC2)CC(=O)N(c2ccc(C(=O)O)cc2)C3)cc(OCC)c1-c1ccc(F)cc1

Compound: O=C(O)c1ccc(N2CC3(CCN(Cc4cc(C(F)(F)F)ccc4C4CC4)CC3)OC2=O)cc1
clearance (in vivo [12]): 3.4 mL/min/kg | remaining at 0.5 h, 1 µM (in vitro [4]): 94% | concentration at 24 h (in vivo [13]): 470 nM | Cmax (in vivo [14]): 2990 nM | remaining at 0.5 h, 1 µM (in vitro [8]): 99% | AUC (in vivo [15]): 31.2 µM·h | AUC (in vivo [9]): 8.5 µM·h | bioavailability (in vivo [16]): 85% | half-life (in vivo [17]): 1.6 h

Compound: Cc1cc(-c2ccc(F)c(F)c2F)c(CN2CCC3(CC2)CC(=O)N(c2ccc(C(=O)O)cc2)C3)cc1C(F)(F)F
remaining at 0.5 h, 1 µM (in vitro [4]): 94% | remaining at 0.5 h, 1 µM (in vitro [8]): 100%

Compound: Cc1cccc2c(CN3CCC4(CC3)CC(=O)N(c3ccc(C(=O)O)cc3)C4)cn(C(C)C)c12
remaining at 0.5 h, 1 µM (in vitro [4]): 95% | remaining at 0.5 h, 1 µM (in vitro [8]): 100%
